Measured values reported in US10376520B2, “Methods for the treatment of cardiovascular disorders” (Galapagos NV, priority 2015, dated 2019).

System: Subjects With Active Crohn's Disease
Test: LDL determination, Study 5 (Crohn's disease)
Format: in vivo, human
Details: for [LDL] Mean CFB - 10 weeks results / [LDL] Median CFB - 10 weeks results / [LDL] Mean CFB: 200 mg q.d.; for [LDL] Mean CFB: Study 5 10 weeks results
Text: Double-Blind, Randomized, Placebo-Controlled, Multi-Centre Study to Investigate the Efficacy and Safety of Compound 1 in Subjects With Active Crohn's Disease With Evidence of Mucosal Ulceration.
This is a double-blind, randomized, placebo-controlled, multi-centre Phase 2 study to investigate the efficacy and safety of Compound 1 administered once daily for the treatment of active CD with evidence of mucosal ulceration. The pharmacokinetics (including a PK substudy) and pharmacodynamics of Compound 1 and metabolite in CD will also be characterised.
A total of 180 eligible subjects will be randomized to receive Compound 1 or placebo in addition to their stable background treatment (eg, corticosteroids, aminosalicylates, or CD-related antibiotics). The study will consist of 2 parts, with total treatment duration of 20 weeks. Randomization in Part 1 will be stratified according the subject's previous anti-TNF exposure/response, CRP level at Screening, and oral corticosteroid use at visit Day −1.
After the first 10 weeks of treatment in Part 1, patients will be re-randomized for Part 2 as shown in the diagram below and will be stratified according to the subject's clinical response, previous anti-TNF exposure/response, and oral corticosteroid use at visit Day −1.
The following assays were conducted at Eurofins Global Central Laboratory, Bergschot 71, 4817 PA Breda, The Netherlands, and at Quest Diagnostics, Clinical Trials, Quest House, 125-135 Staines Road, Hounslow, Middlesex, TW3 3JB, United Kingdom. The assays for Study 5 were performed at BARC Europe, 3B, Industrie Park, Zwijnaarde, B-9052 Ghent, Belgium.
The determination of [LDL]-cholesterol is made using an automated method taking advantage of the selective micellary solubilization of [LDL]-cholesterol by a nonionic detergent and the interaction of a sugar compound and lipoproteins (VLDL and chylomicrons).
When a detergent is included in the enzymatic method for cholesterol determination (cholesterol esterase, cholesterol oxidase coupling reaction), the relative reactivities of cholesterol in the lipoprotein fractions increase in this order: [HDL]<chylomicrons <VLDL <[LDL]. In the presence of Mg^2+, a sugar compound markedly reduces the enzymatic reaction of the cholesterol measurement in VLDL and chylomicrons. The combination of a sugar compound with detergent enables the selective determination of [LDL]-cholesterol in serum. (Friedewald et al., 1972; Rifai et al., 1992)
Homogeneous enzymatic colorimetric assay.
In the presence of peroxidase, the hydrogen peroxide generated reacts with 4-aminoantipyrine and Sodium N-(2-hydroxy-3-sulfopropyl)-3,5-dimethoxyaniline (HSDA) to form a purple-blue dye.
The color intensity of this dye is directly proportional to the cholesterol concentration and is measured photometrically.
Human serum and plasma samples [LDL] determination was done on a Roche/Hitachi Cobas c 701/702 system which automatically calculate the analyte concentration of each sample. Samples containing precipitates are centrifuged before performing the assay.

[1] = 200 mg q.d. week 0 to 10, to 100 mg q.d. week 10 to 20, week 16
[2] = 200 mg q.d. week 0 to 10, to 100 mg q.d. week 10 to 20, week 20
[3] = 200 mg q.d. week 0 to 10, to placebo week 10 to 20, week 2
[4] = 200 mg q.d. week 0 to 10, to placebo week 10 to 20, week 4
[5] = 200 mg q.d. week 0 to 10, to placebo week 10 to 20, week 6
[6] = 200 mg q.d. week 0 to 10, to placebo week 10 to 20, week 10
[7] = 200 mg q.d. week 0 to 10, to placebo week 10 to 20, week 12
[8] = 200 mg q.d. week 0 to 10, to placebo week 10 to 20, week 16
[9] = 200 mg q.d. week 0 to 10, to placebo week 10 to 20, week 20
[10] = continued 200 mg q.d. (N = 77), week 2
[11] = continued 200 mg q.d. (N = 77), week 4
[12] = continued 200 mg q.d. (N = 77), week 6
[13] = continued 200 mg q.d. (N = 77), week 10
[14] = continued 200 mg q.d. (N = 77), week 12
[15] = continued 200 mg q.d. (N = 77), week 16
[16] = continued 200 mg q.d. (N = 77), week 20
[17] = placebo week 0 to 10, then 100 mg q.d. (N = 22), week 12
[18] = placebo week 0 to 10, then 100 mg q.d. (N = 22), week 16
[19] = placebo week 0 to 10, then 100 mg q.d. (N = 22), week 20
[20] = placebo week 0 to 10, to 100 mg q.d. week 10 to 20, week 12
[21] = placebo week 0 to 10, to 100 mg q.d. week 10 to 20, week 16
[22] = placebo week 0 to 10, to 100 mg q.d. week 10 to 20, week 20

O=C(Nc1nc2cccc(-c3ccc(CN4CCS(=O)(=O)CC4)cc3)n2n1)C1CC1 [Compound 1, cyclopropanecarboxylic acid {5-[4-(1,1-dioxo-thiomorpholin-4-ylmethyl)-phenyl]-[1,2,4]triazolo[1,5-a]pyridin-2yl}-amide]
[LDL] Mean CFB - 20 weeks results [1]: 2.18% | [LDL] Median CFB - 20 weeks results [1]: −1.36% | [LDL] Mean CFB - 20 weeks results [2]: 2.73% | [LDL] Median CFB - 20 weeks results [2]: 1.65% | [LDL] Mean CFB - 20 weeks results [3]: 2.69% | [LDL] Median CFB - 20 weeks results [3]: 0.71% | [LDL] Mean CFB - 20 weeks results [4]: 1.85% | [LDL] Median CFB - 20 weeks results [4]: 2.44% | [LDL] Mean CFB - 20 weeks results [5]: 3.72% | [LDL] Median CFB - 20 weeks results [5]: 3.51% | [LDL] Mean CFB - 20 weeks results [6]: 4.43% | [LDL] Median CFB - 20 weeks results [6]: 1.84% | [LDL] Mean CFB - 20 weeks results [7]: 4.55% | [LDL] Median CFB - 20 weeks results [7]: 6.33% | [LDL] Mean CFB - 20 weeks results [8]: 10.32% | [LDL] Median CFB - 20 weeks results [8]: 6.34% | [LDL] Mean CFB - 20 weeks results [9]: 6.12% | [LDL] Median CFB - 20 weeks results [9]: 5.24% | [LDL] Mean CFB - 10 weeks results (week 2): 2.833% | [LDL] Median CFB - 10 weeks results (week 2): −1.469% | [LDL] Mean CFB - 10 weeks results (week 4): 1.997% | [LDL] Median CFB - 10 weeks results (week 4): −1.986% | [LDL] Mean CFB - 10 weeks results (week 6): 1.743% | [LDL] Median CFB - 10 weeks results (week 6): 0.992% | [LDL] Mean CFB - 10 weeks results (week 10): 10.126% | [LDL] Median CFB - 10 weeks results (week 10): 6.299% | [LDL] Mean CFB (week 2): 0.025 mmol/L | [LDL] Mean CFB (week 4): -0.030 mmol/L | [LDL] Mean CFB (week 6): -0.012 mmol/L | [LDL] Mean CFB (week 10): 0.150 mmol/L | [LDL] Mean CFB - 20 weeks results [10]: 0.04 mmol/L | [LDL] Median CFB - 10 weeks results 20 weeks results [10]: -0.05 mmol/L | [LDL] Mean CFB - 20 weeks results [11]: -0.05 mmol/L | [LDL] Median CFB - 10 weeks results 20 weeks results [11]: -0.05 mmol/L | [LDL] Mean CFB - 20 weeks results [12]: -0.05 mmol/L | [LDL] Median CFB - 10 weeks results 20 weeks results [12]: -0.02 mmol/L | [LDL] Mean CFB - 20 weeks results [13]: 0.20 mmol/L | [LDL] Median CFB - 10 weeks results 20 weeks results [13]: 0.18 mmol/L | [LDL] Mean CFB - 20 weeks results [14]: 0.14 mmol/L | [LDL] Median CFB - 10 weeks results 20 weeks results [14]: 0.15 mmol/L | [LDL] Mean CFB - 20 weeks results [15]: 0.21 mmol/L | [LDL] Median CFB - 10 weeks results 20 weeks results [15]: 0.19 mmol/L | [LDL] Mean CFB - 20 weeks results [16]: 0.22 mmol/L | [LDL] Median CFB - 10 weeks results 20 weeks results [16]: 0.18 mmol/L | [LDL] Mean CFB - 20 weeks results [17]: 0.09 mmol/L | [LDL] Median CFB - 10 weeks results 20 weeks results [17]: 0.07 mmol/L | [LDL] Mean CFB - 20 weeks results [18]: 0.05 mmol/L | [LDL] Median CFB - 10 weeks results 20 weeks results [18]: -0.06 mmol/L | [LDL] Mean CFB - 20 weeks results [19]: 0.06 mmol/L | [LDL] Median CFB - 10 weeks results 20 weeks results [19]: 0.03 mmol/L | [LDL] Mean CFB - 20 weeks results [20]: 4.07% | [LDL] Median CFB - 20 weeks results [20]: 2.14% | [LDL] Mean CFB - 20 weeks results [21]: 5.28% | [LDL] Median CFB - 20 weeks results [21]: −2.00% | [LDL] Mean CFB - 20 weeks results [22]: 7.29% | [LDL] Median CFB - 20 weeks results [22]: 1.90%
